Assays:
[1] = molecular target: Sigma non-opioid intracellular receptor 1 (Homo sapiens, UniProt Q99720); experiment: DRUGMATRIX: Sigma1 radioligand binding (ligand: [3H] Haloperidol); assay type: cell membranes, Jurkat, Membrane; settings: Not Active = under 50% inhibition at 10 µM
[2] = molecular target: T1, Muscarinic acetylcholine receptor M5 (Homo sapiens, UniProt P08912); assay type: cell membranes, CHO-K1, Membrane; also: in other assays of this panel Not Active means under 50% inhibition at 10 µM
T1 sequence (P08912 whole entry): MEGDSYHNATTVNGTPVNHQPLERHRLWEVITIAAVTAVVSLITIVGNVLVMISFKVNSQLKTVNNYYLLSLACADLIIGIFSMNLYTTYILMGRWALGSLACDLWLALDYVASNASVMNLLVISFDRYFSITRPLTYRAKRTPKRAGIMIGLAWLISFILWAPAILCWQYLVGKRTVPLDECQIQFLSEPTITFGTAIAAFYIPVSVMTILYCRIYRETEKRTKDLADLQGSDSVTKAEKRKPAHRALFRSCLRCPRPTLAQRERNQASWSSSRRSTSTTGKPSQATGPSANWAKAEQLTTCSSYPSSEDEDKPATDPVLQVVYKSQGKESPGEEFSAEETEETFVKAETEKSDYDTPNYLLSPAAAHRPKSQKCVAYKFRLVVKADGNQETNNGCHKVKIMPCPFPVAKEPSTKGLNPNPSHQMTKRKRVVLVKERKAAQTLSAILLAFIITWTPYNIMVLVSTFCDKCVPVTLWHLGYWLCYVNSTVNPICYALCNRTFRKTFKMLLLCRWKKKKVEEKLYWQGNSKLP

[3] = DRUGMATRIX: Phosphodiesterase PDE3 enzyme inhibition (substrate: [3H]cAMP + cAMP); assay type: tissue-based, Homo sapiens; settings: platelet; Not Active = under 50% inhibition at 10 µM
[4] = molecular target: Tyrosine-protein kinase Lck (Homo sapiens, UniProt P06239); experiment: DRUGMATRIX: Protein Tyrosine Kinase, LCK enzyme inhibition (substrate: Poly(Glu:Tyr)); assay type: cell-based, Insect cells; settings: insect cells; Not Active = under 50% inhibition at 10 µM
Sequence of Tyrosine-protein kinase Lck (P06239 whole entry): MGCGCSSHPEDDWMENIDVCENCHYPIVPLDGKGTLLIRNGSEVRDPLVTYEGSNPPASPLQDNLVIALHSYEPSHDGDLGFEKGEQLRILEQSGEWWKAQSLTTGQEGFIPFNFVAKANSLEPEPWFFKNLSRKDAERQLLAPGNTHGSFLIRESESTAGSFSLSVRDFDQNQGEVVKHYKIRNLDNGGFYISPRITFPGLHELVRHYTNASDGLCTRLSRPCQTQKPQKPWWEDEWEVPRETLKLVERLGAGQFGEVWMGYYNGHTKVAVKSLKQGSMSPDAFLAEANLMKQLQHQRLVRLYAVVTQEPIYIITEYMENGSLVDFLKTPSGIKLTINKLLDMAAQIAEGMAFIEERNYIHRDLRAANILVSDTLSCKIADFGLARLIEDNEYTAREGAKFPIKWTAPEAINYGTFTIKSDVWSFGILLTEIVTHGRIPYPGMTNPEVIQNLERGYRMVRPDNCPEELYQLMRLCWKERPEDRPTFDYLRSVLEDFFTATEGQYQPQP

[5] = DRUGMATRIX: beta-Lactamase enzyme inhibition (substrate: Nitrocefin); parameters: species or system Bacillus cereus; settings: Not Active = under 50% inhibition at 10 µM
[6] = molecular target: T2, Neuropeptide Y receptor type 1 (Homo sapiens, UniProt P25929); assay type: cell membranes, Membrane; settings: sk-n-mc; also: in other assays of this panel Not Active means under 50% inhibition at 10 µM
T2 sequence (P25929 whole entry): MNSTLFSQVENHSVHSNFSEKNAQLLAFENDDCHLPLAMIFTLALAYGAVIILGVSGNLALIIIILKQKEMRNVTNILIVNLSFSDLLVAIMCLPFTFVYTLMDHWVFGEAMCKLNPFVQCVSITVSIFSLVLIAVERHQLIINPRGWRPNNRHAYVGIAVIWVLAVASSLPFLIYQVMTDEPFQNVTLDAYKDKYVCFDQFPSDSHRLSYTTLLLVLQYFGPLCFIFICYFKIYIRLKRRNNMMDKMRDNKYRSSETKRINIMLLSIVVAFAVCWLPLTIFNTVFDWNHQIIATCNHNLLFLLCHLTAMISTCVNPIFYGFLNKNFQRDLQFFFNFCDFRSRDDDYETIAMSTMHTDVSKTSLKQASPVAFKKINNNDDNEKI

[7] = molecular target: C-C chemokine receptor type 5 (Homo sapiens, UniProt P51681); assay type: cell membranes, HEK293, Membrane; settings: hek293; also: in other assays of this panel Not Active means under 50% inhibition at 10 µM
Sequence of C-C chemokine receptor type 5 (P51681 whole entry): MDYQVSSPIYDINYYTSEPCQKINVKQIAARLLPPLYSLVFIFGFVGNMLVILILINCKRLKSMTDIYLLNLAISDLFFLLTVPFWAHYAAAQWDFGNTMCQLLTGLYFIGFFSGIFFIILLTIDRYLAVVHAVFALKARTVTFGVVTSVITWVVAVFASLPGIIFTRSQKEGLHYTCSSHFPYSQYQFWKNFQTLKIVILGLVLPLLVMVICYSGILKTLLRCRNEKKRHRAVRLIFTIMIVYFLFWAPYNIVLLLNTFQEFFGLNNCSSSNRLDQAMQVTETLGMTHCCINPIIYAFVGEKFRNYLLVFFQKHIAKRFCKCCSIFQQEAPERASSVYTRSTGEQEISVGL

Sequence of Sigma non-opioid intracellular receptor 1 (Q99720 whole entry): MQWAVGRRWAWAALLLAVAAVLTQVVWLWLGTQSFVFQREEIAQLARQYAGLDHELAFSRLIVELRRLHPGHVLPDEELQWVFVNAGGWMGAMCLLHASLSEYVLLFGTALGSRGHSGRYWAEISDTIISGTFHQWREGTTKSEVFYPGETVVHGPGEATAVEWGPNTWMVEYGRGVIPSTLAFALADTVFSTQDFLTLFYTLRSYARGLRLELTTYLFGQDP

Compound | IC50 ([1]; jurkat) | IC50 ([2]; cho-k1) | IC50 [3] | Ki [3] | IC50 [4] | IC50 [5] | Ki [5] | IC50 [6] | IC50 [7] | Ki ([1]; jurkat) | Ki ([2]; cho-k1) | Ki [4] | Ki [6] | Ki [7] | IC50 ([1]; read-out: IC50) [µM] | Ki ([1]; read-out: Ki) [µM] | IC50 ([2]; read-out: IC50) [µM] | Ki ([2]; read-out: Ki) [µM]
COc1ccc(Cl)cc1C(=O)NCCc1ccc(S(=O)(=O)NC(=O)NC2CCCCC2)cc1 [GLYBURIDE] | Not Active | Not Active | Not Active | Not Active | Not Active | Not Active | Not Active | Not Active | Not Active |  |  |  |  |  |  |  |  | 
CHROMIC CHLORIDE | Not Active | Not Active | Not Active | Not Active | Not Active | Not Active | Not Active | Not Active | Not Active | Not Active | Not Active | Not Active | Not Active | Not Active |  |  |  | 
CCN1C[C@]2(COC)[C@H](O)C[C@H](OC)[C@@]34[C@@H]5C[C@@]6(O)[C@H](OC(=O)c7ccccc7)[C@@H]5[C@@](OC(C)=O)([C@@H]([C@H](OC)[C@H]23)[C@@H]14)[C@@H](O)[C@@H]6OC [ACONITINE] | Not Active | Not Active | Not Active | Not Active | Not Active | Not Active | Not Active | Not Active | Not Active |  |  |  |  |  |  |  |  | 
O=C(O)CCc1nc(-c2ccccc2)c(-c2ccccc2)o1 [OXAPROZIN] | Not Active | Not Active | Not Active | Not Active | Not Active | Not Active | Not Active | Not Active | Not Active |  |  |  |  |  |  |  |  | 
Cc1ccnc2c1NC(=O)c1cccnc1N2C1CC1 [NEVIRAPINE] | Not Active | Not Active | Not Active | Not Active | Not Active | Not Active | Not Active | Not Active | Not Active |  |  |  |  |  |  |  |  | 
Clc1cc(Cl)c(OCC#CI)cc1Cl [HALOPROGIN] | Not Active | Not Active | Not Active | Not Active | Not Active | Not Active | Not Active | Not Active | Not Active |  |  |  |  |  |  |  |  | 
COc1ccccc1OCCNCC(O)COc1cccc2[nH]c3ccccc3c12 (stereo not drawn) [CARVEDILOL] | Not Active | Not Active | Not Active | Not Active | Not Active | Not Active | Not Active | Not Active | Not Active |  |  |  |  |  |  |  |  | 
CCN1CCN(c2cc3c(cc2F)c(=O)c(C(=O)O)cn3C2CC2)CC1 [ENROFLOXACIN] | Not Active | Not Active | Not Active | Not Active | Not Active | Not Active | Not Active | Not Active | Not Active |  |  |  |  |  |  |  |  | 
POVIDONE | Not Active | Not Active | Not Active | Not Active | Not Active | Not Active | Not Active | Not Active | Not Active | Not Active | Not Active | Not Active | Not Active | Not Active |  |  |  | 
C=C(Cl)Cl [1,1-DICHLOROETHENE] | Not Active | Not Active | Not Active | Not Active | Not Active | Not Active | Not Active | Not Active | Not Active |  |  |  |  |  |  |  |  | 
CC(=O)[C@]1(O)Cc2c(O)c3c(c(O)c2[C@@H](O[C@H]2C[C@H](N)[C@H](O)[C@H](C)O2)C1)C(=O)c1ccccc1C3=O [IDARUBICIN] | Not Active | Not Active | Not Active | Not Active | Not Active | Not Active | Not Active | Not Active | Not Active |  |  |  |  |  |  |  |  | 
NC(=O)CN1CCCC1=O | Not Active | Not Active | Not Active | Not Active | Not Active | Not Active | Not Active | Not Active | Not Active |  |  |  |  |  |  |  |  | 
CO[C@H]1O[C@@H]2O[C@@]3(C)CC[C@H]4[C@H](C)CC[C@@H]([C@H]1C)[C@@]24OO3 | Not Active | Not Active | Not Active | Not Active | Not Active | Not Active | Not Active | Not Active | Not Active |  |  |  |  |  |  |  |  | 
CC12CCC(CC1)C(C)(C)O2 [EUCALYPTOL] | Not Active | Not Active | Not Active | Not Active | Not Active | Not Active | Not Active | Not Active | Not Active |  |  |  |  |  |  |  |  | 
C[N+](C)(C)CCOC(N)=O.[Cl-] [CARBACHOL] | Not Active | Not Active | Not Active | Not Active | Not Active | Not Active | Not Active | Not Active | Not Active |  |  |  |  |  |  |  |  | 
NS(=O)(=O)c1cc(C(=O)O)c(NCc2ccco2)cc1Cl [FUROSEMIDE] | Not Active | Not Active | Not Active | Not Active | Not Active | Not Active | Not Active | Not Active | Not Active |  |  |  |  |  |  |  |  | 
CC(C)NCC(O)COc1ccc(CC(N)=O)cc1 (stereo not drawn) [ATENOLOL] | Not Active | Not Active | Not Active | Not Active | Not Active | Not Active | Not Active | Not Active | Not Active |  |  |  |  |  |  |  |  | 
Oc1ncnc2[nH]ncc12 [ALLOPURINOL] | Not Active | Not Active | Not Active | Not Active | Not Active | Not Active | Not Active | Not Active | Not Active |  |  |  |  |  |  |  |  | 
NCC(CC(=O)O)c1ccc(Cl)cc1 (stereo not drawn) [BACLOFEN] | Not Active | Not Active | Not Active | Not Active | Not Active | Not Active | Not Active | Not Active | Not Active |  |  |  |  |  |  |  |  | 
O=C1CN(/N=C/c2ccc([N+](=O)[O-])o2)C(=O)N1 [NITROFURANTOIN] | Not Active | Not Active | Not Active | Not Active | Not Active | Not Active | Not Active | Not Active | Not Active |  |  |  |  |  |  |  |  | 
CC12CCC(CC1=O)C2(C)C (stereo not drawn) [CAMPHOR] | Not Active | Not Active | Not Active | Not Active | Not Active | Not Active | Not Active | Not Active | Not Active |  |  |  |  |  |  |  |  | 
Cc1c(N)nc([C@H](CC(N)=O)NC[C@H](N)C(N)=O)nc1C(=O)N[C@H](C(=O)N[C@H](C)[C@@H](O)[C@H](C)C(=O)N[C@H](C(=O)NCCc1nc(-c2nc(C(=O)NCCC[S+](C)C)cs2)cs1)[C@@H](C)O)[C@@H](O[C@@H]1O[C@@H](CO)[C@@H](O)[C@H](O)[C@@H]1O[C@H]1O[C@H](CO)[C@@H](O)[C@H](OC(N)=O)[C@@H]1O)c1c[nH]cn1.[Br-] [BLEOMYCIN A2] | Not Active | Not Active | Not Active | Not Active | Not Active | Not Active | Not Active | Not Active | Not Active |  |  |  |  |  |  |  |  | 
CN(Cc1cc(Br)cc(Br)c1N)C1CCCCC1 [BROMHEXINE] |  | Not Active | Not Active | Not Active | Not Active | Not Active | Not Active | Not Active | Not Active |  |  |  |  |  | 0.061 | 0.025 |  | 
COPPER(II) OXIDE | Not Active | Not Active | Not Active | Not Active | Not Active | Not Active | Not Active | Not Active | Not Active | Not Active | Not Active | Not Active | Not Active | Not Active |  |  |  | 
CC(CN1c2ccccc2Sc2ccccc21)N(C)C (stereo not drawn) [PROMETHAZINE] |  |  | Not Active | Not Active | Not Active | Not Active | Not Active | Not Active | Not Active |  |  |  |  |  | 0.287 | 0.12 | 0.0046 | 0.00331
